Laboratory results published in patent publication US20060058307A1, “Combination of an atp-competitive inhibitor of bcr/abl kinase activity and a tyrphostin analog” (priority 2001, published 2006).
Read-outs that look alike come from different tables or passages of the source.

Columns and labels:
p210^bcr/abl = conditions: immune complex kinase assays; cited from earlier work
[1] = animal testing, in vivo; unpublished observations of Stinson, Narayanan and Sausville; adaphostin compared with AG957; cited from earlier work
K562 cells [2] = assay: Morphologic changes associated with apoptosis (Hoechst 33258 staining) in K562 cells; type: cell-based, human; conditions: 24 h
Experimental: For morphological analysis, cells are fixed in 3:1 (v:v) methanol:acetic acid, stained with 1 μg/ml Hoechst 33258 in 50% (v:v) glycerol and examined under epi-illumination using a Zeiss Axioplan microscope. Two hundred to 300 cells/sample are scored for apoptotic changes (peripheral chromatin condensed or nuclear fragmentation) as described in Svingen et al., Clin. Cancer Res. 6, 237-49 (2000).
Under (c) in Table (A), K562 cells are incubated with the concentration indicated in the subsequent table in the presence of diluent or 10 μmol/l STI 571, fixed, and examined for apoptotic morphological changes.

K562 cells [3] = assay: Clonogenic assay (colony formation in 0.3% agar) of K562 cells; type: cell-based, human; conditions: 24 h
Experimental: At the completion of the incubation, cells are washed, plated in 0.3% agar and incubated for 10-14 days before colony formation is assessed. For results see under (a) in Table (A). […] At the completion of the incubation, colony formation ability is assessed as described in the last paragraph.

[4] = compared with AG957; Svingen et al.; cited from earlier work
CML CFU-G = assay: Granulocyte colony formation of circulating mononuclear cells from CML patients (CFU-G / CFU-GM); type: cell-based, human; conditions: for Number of colonies (% of control): (d) Pt. #30 CFU-GM, 24 h; for IC50: Homo sapiens, CFU-GM, linear regression
Experimental: Clinical samples are studied under the aegis of a protocol approved by the Institutional Review Board of the Mayo Clinic in accordance with the policies of the US Department of Health and Human Services. […] CML CFU-G, 10 mL of peripheral blood is drawn from normal volunteers and consenting patients with previously untreated chronic phase CML using EDTA as an anticoagulant. […] At the completion of the incubation, samples are sedimented at 200×g for 10 min, resuspended at a concentration of 1×10^6/ml in medium C containing 50 ng/mL G-CSF, plated in 0.3% agar, and incubated for 7-8 d. Colonies containing […] are counted on an inverted phase contrast microscope.

COC(=O)c1ccc(NCc2cc(O)ccc2O)cc1 [AG957]
p210^bcr/abl activity (p210^bcr/abl): inhibit | serum half-life [1]: very short

O=C(OC12CC3CC(CC(C3)C1)C2)c1ccc(NCc2cc(O)ccc2O)cc1 [Adaphostin, 4-{[(2,5-dihydroxyphenyl)methyl]amino}-benzoic acid adamantyl ester]
Apoptosis (% of total cells) (K562 cells [2]; (c) adaphostin 0.62 μmol/l without STI571): 2.1 % of total cells | Apoptosis (% of total cells) (K562 cells [2]; (c) adaphostin 1.25 μmol/l without STI571): 10.9 % of total cells | Apoptosis (% of total cells) (K562 cells [2]; (c) adaphostin 2.50 μmol/l without STI571): 41.8 % of total cells | Apoptosis (% of total cells) (K562 cells [2]; (c) adaphostin 3.75 μmol/l without STI571): 62.8 % of total cells | Apoptosis (% of total cells) (K562 cells [2]; (c) adaphostin 5.00 μmol/l without STI571): 84.1 % of total cells | Number of colonies (% of control) (K562 cells [3]; (a) adaphostin 2.5 μmol/l without STI571): 56 ± 4 % of control | Number of colonies (% of control) (K562 cells [3]; (a) adaphostin 5.1 μmol/l without STI571): 46 ± 4 % of control | Number of colonies (% of control) (K562 cells [3]; (a) adaphostin 7.7 μmol/l without STI571): 27 ± 4 % of control | Number of colonies (% of control) (K562 cells [3]; (a) adaphostin 10.2 μmol/l without STI571): 10 ± 1 % of control | Number of colonies (% of control) (K562 cells [3]; (b) adaphostin 5.2 μmol/l, STI571 0): 35 ± 3 % of control | potency in vitro [4]: higher | serum half-life [1]: longer | Number of colonies (% of control) (CML CFU-G; adaphostin 3.2 μmol/l without STI571): 93 ± 1.9 % of control | Number of colonies (% of control) (CML CFU-G; adaphostin 6.4 μmol/l without STI571): 71 ± 2.2 % of control | Number of colonies (% of control) (CML CFU-G; adaphostin 12.7 μmol/l without STI571): 55 ± 2.5 % of control | Number of colonies (% of control) (CML CFU-G; adaphostin 15.9 μmol/l without STI571): 40 ± 1.2 % of control | Number of colonies (% of control) (CML CFU-G; adaphostin 19.1 μmol/l without STI571): 18 ± 0.7 % of control | IC50 (CML CFU-G; read-out: IC50 for Adaphostin in presence of 20 μmol/l STI571, CFU-GM, patient number 28): 5 µM | IC50 (CML CFU-G; read-out: IC50 for Adaphostin in presence of 20 μmol/l STI571, CFU-GM, patient number 29): 14 µM | IC50 (CML CFU-G; read-out: IC50 for Adaphostin in presence of 20 μmol/l STI571, CFU-GM, patient number 30): 8.5 µM | IC50 (CML CFU-G; read-out: IC50 for Adaphostin in presence of 20 μmol/l STI571, CFU-GM, patient number 31): 10 µM | IC50 (CML CFU-G; read-out: IC50 for Adaphostin in presence of 20 μmol/l STI571, CFU-GM, patient number 33): 16 µM | IC50 (CML CFU-G; read-out: IC50 for Adaphostin in presence of 20 μmol/l STI571, CFU-GM, patient number 34): 3.5 µM | IC50 (CML CFU-G; read-out: IC50 for Adaphostin without STI571, CFU-GM, patient number 28): 13 µM | IC50 (CML CFU-G; read-out: IC50 for Adaphostin without STI571, CFU-GM, patient number 29): > 20 µM | IC50 (CML CFU-G; read-out: IC50 for Adaphostin without STI571, CFU-GM, patient number 30): 13.5 µM | IC50 (CML CFU-G; read-out: IC50 for Adaphostin without STI571, CFU-GM, patient number 31): 8.5 µM | IC50 (CML CFU-G; read-out: IC50 for Adaphostin without STI571, CFU-GM, patient number 33): 23 µM | IC50 (CML CFU-G; read-out: IC50 for Adaphostin without STI571, CFU-GM, patient number 34): 11 µM

Cc1ccc(NC(=O)c2ccc(CN3CCN(C)CC3)cc2)cc1Nc1nccc(-c2cccnc2)n1 [STI571, N-{5-[4-(4-methyl-piperazino-methyl)-benzoylamido]-2-methylphenyl}-4-(3-pyridyl)-2-pyrimidine-amine]
Apoptosis (% of total cells) (K562 cells [2]; (c) STI571 10 μmol/l, adaphostin 0): 12.9 % of total cells
